Laboratory results reported in publication PMC6891315, “Synthesis of Novel Farnesoid X Receptor Agonists and Validation of Their Efficacy in Activating Differentiation of Mouse Bone Marrow-Derived Mesenchymal Stem Cells into Osteoblasts” (Molecules, 2019).

Key:
[1] = system: ALP gene expression in ST-2 MSCs; experiment: qPCR of ALP gene during osteoblast differentiation; format: cell-based, mouse; settings: for ALP gene expression (mRNA level): with BMP-2 50 ng/mL, 6 or 12 days, 10 μM CDCA, 5 μM GW4064, 5 μM 3 or 4, vs BMP-2-treated cells
Method: (§1) Mouse ST-2 MSCs were obtained from RIKEN BioResource Research Center (Tsukuba, Japan) and cultured in RPMI-1640 medium (Sigma) containing 10% (v/v) fetal calf serum and antibiotics (100 units/mL penicillin and 100 μg/mL streptomycin; Nacalai Tesque) at 37 °C in an atmosphere of 5% CO2. The ST-2 MSCs were allowed to differentiate into osteoblasts for 6 or 12 days in RPMI-1640 medium with BMP-2 (50 ng/mL). The medium was changed every 3 days.
(§2) RNAiso Plus was used to isolate total RNA (Takara-Bio, Kyoto, Japan). Subsequently total RNA (1 μg) was reverse-transcribed to cDNAs using ReverTra Ace reverse transcriptase (Toyobo, Osaka, Japan) and random hexamer (Takara-Bio). Thereafter, the mRNA levels were determined by qPCR analysis using a Power SYBR Green Master Mix (Thermo Fisher Scientific) in an Applied Biosystems 7500 Real Time PCR System (Thermo Fisher Scientific). The relative mRNA expression levels were determined using the 2^−ΔΔCT method and normalized to that of glyceraldehyde-3-phosphate dehydrogenase (GAPDH).

ST-2 MSCs [2] = experiment: ALP staining and ALP activity in BMP-2-induced osteoblast differentiation; format: cell-based, mouse; settings: for staining and activity of ALP: with BMP-2 50 ng/mL, 6 or 12 days, 10 μM CDCA, 5 μM GW4064, 5 μM 3 or 4, vs BMP-2-treated cells
Method: as §1
The ST-2 MSCs were allowed to differentiate into osteoblasts for 12 days in RPMI-1640 medium with BMP-2 (50 ng/mL) and one of FXR agonists together with or without GS (25 μM). Then, the cells were washed twice with PBS and fixed with 10% (v/v) formaldehyde in PBS at 25 °C for 10 min. The cells were again washed with PBS, and incubated with the staining solution (0.1 mg/mL naphthol AS-MX phosphate and 0.6 mg/mL Fast-blue BB salt in 0.1 M Tris-Cl, pH 8.8) at 25 °C for 30 min. After removing the staining solution, the cells were washed with PBS and visualized under a microscope (CKX-41, Olympus, Tokyo, Japan).
The ALP activity was measured using LabAssay ALP (FUJIFILM Wako Pure Chemical) according to the manufacturer’s protocols. Protein concentrations were measured using a Pierce BCA Protein Assay Kit (Thermo Fisher Scientific).

[3] = system: FXR, BSEP and SHP gene expression in ST-2 MSCs; experiment: qPCR of FXR and FXR-target genes (BSEP, SHP) during osteoblast differentiation; format: cell-based, mouse; settings: for mRNA expression level of FXR: with BMP-2 50 ng/mL, 6 and 12 days, 10 μM CDCA, 5 μM GW4064, 5 μM 3 or 4, vs BMP-2-treated cells
Method: as §1, §2

ST-2 MSCs [4] = experiment: Cell toxicity (WST, Cell Counting Kit-8) assay; format: cell-based, mouse; settings: 12 days; 0–10 μM CDCA, 0–5 μM GW4064, 0–5 μM 3 or 4
Method: The cells were washed twice with PBS, and cell viability was determined using Cell Counting Kit-8 (Dojindo Molecular Technologies, Kumamoto, Japan) according to the protocols provided by the supplier. The cell viability (%) was shown relative to the vehicle-treated cells (0 μM).

[5] = system: RUNX2, COL1A1 and OCN gene expression in ST-2 MSCs; experiment: qPCR of osteogenic genes (RUNX2, COL1A1, OCN) during osteoblast differentiation; format: cell-based, mouse; settings: for expression of RUNX2, COL1A1 and OCN genes: with BMP-2 50 ng/mL, 10 μM CDCA, 5 μM GW4064, 5 μM 3 or 4, vs BMP-2-treated cells
Method: as §1, §2

FXR = settings: cited from earlier work
LXRα = target: T1, LXRα (Homo sapiens, UniProt Q13133); experiment: LXRα response element-driven luciferase reporter assay in COS-7 cells; settings: 1 μM
T1 sequence (Q13133 1-447): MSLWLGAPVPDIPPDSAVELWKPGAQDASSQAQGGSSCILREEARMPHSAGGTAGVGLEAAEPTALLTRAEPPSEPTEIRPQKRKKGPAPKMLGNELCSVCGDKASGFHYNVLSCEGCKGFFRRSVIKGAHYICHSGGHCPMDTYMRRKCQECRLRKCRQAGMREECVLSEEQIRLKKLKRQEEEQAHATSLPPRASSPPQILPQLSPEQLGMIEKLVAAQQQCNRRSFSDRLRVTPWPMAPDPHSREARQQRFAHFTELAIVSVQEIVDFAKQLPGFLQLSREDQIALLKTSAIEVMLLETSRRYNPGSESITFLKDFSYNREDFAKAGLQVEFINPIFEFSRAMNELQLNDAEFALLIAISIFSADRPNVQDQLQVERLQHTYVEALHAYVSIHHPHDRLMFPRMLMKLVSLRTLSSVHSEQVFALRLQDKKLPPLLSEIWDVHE
Method: Luciferase reporter assay was performed as described previously [53]. Briefly, human hepatoma Huh-7 (for FXR, RARα, and RXRα), transformed African green monkey kidney fibroblast COS-7 (for LXRα/β and PPARα/γ/δ), or human embryonic kidney HEK293 (for VDR and TGR5) cells were transfected with each of plasmids for nuclear receptor and nuclear receptor-response element-driven luciferase gene. […] The luciferase activity was measured as described previously [53].

Row | SMILES | ALP gene expression (mRNA level) [1] | staining and activity of ALP (ST-2 MSCs [2]) | mRNA expression level of FXR [3] | cytotoxicity (cell viability, WST assay) (ST-2 MSCs [4]) | expression of RUNX2, COL1A1 and OCN genes ([5]; 6 days) | other results
1 | CC(C)c1onc(-c2c(Cl)cccc2Cl)c1COc1ccc(/C=C/c2cccc(C(=O)O)c2)c(Cl)c1 [GW4064] | elevated | elevated | elevated | No cytotoxicity | further enhanced | –
2 | C[C@H](CCC(=O)O)[C@H]1CC[C@H]2[C@@H]3[C@H](O)C[C@@H]4C[C@H](O)CC[C@]4(C)[C@H]3CC[C@]12C [CDCA, chenodeoxycholic acid] | elevated | elevated | elevated | No cytotoxicity | further enhanced | –
3 | CC(C)c1onc(-c2c(Cl)cccc2Cl)c1COc1ccc(-c2nc3ccc(C(=O)O)cc3n2C)cc1Cl [FXR agonist 3] | enhance | enhanced | elevated | No cytotoxicity | elevated | ability to enhance ALP gene expression compared with GW4064 ([1]; 5 μM, with BMP-2): comparable to that of GW4064; ability to enhance ALP staining and activity compared with GW4064 (ST-2 MSCs [2]; 6- or 12-days-differentiated ST-2 MSCs, 5 μM): comparable to that of GW4064; increase of RUNX2, COL1A1 and OCN expression compared with GW4064 ([5]; 6 days, 5 μM, with BMP-2): comparable to that of GW4064
4 | CC[C@H]1[C@@H](O)[C@@H]2[C@H](CC[C@]3(C)[C@@H]([C@H](C)CCC(=O)O)CC[C@@H]23)[C@@]2(C)CC[C@@H](O)C[C@@H]12 [6-ECDCA, 6α-ethylchenodeoxycholic acid] | – | – | – | – | – | potency relative to CDCA (FXR): about 100 fold
5 | CC(C)c1onc(-c2c(Cl)cccc2Cl)c1COc1ccc(-c2nc3ccc(C(=O)O)cc3n2C)c(Cl)c1 [FXR agonist 4, 2-[2-Chloro-4-[[3-(2,6-dichlorophenyl)-5-isopropyl-isoxazol-4-yl]methoxy]phenyl]-3-methyl-benzimidazole-5-carboxylic acid] | enhance | enhanced | elevated | No cytotoxicity | elevated | –
6 | C/C=C1\C(=O)C[C@H]2[C@@H]3CCC4=CC(=O)CC[C@]4(C)[C@H]3CC[C@]12C [GS, (Z)-guggulsterone] | – | – | – | – | – | effect on FXR agonist-induced ALP gene expression ([1]; co-treatment with 25 μM GS): repressed; effect on FXR agonist-induced staining and activity of ALP (ST-2 MSCs [2]; co-treatment with 25 μM GS): suppressed; effect on FXR agonist-induced BSEP and SHP expression ([3]; co-treatment with 25 μM GS): suppressed; effect on FXR agonist-induced FXR gene expression ([3]; co-treatment with 25 μM GS): repressed; effect on novel FXR agonist-induced expression of osteogenic genes ([5]; co-treatment with 25 μM GS): repressed
7 | CC(C)c1onc(-c2c(Cl)cccc2Cl)c1COc1ccc(-c2nc3cc(C(=O)O)ccc3n2C)cc1 [FXR agonist 2] | – | – | – | – | – | LXRα-response element-driven luciferase activity (LXRα): increased
8 | CC(C)c1onc(-c2c(Cl)cccc2Cl)c1COc1ccc(-c2nc3ccc(C(=O)O)cc3n2C)cc1 [FXR agonist 1] | – | – | – | – | – | LXRα-response element-driven luciferase activity (LXRα): increased
